Reference: patent US20090181904A1, “METHOD FOR REGULATING NUTRIENT ABSORPTION WITH GINSENOSIDES” (priority 2005, published 2009)

Columns and labels:
[1] = system: Caco-2 cell monolayer; assay: Arginine absorption assay (transport across Caco-2 monolayer, 3H-arginine); assay type: cell-based, human; conditions: for Transport rate (arginine): 10 mM L-arginine
Method: (§1) In measuring transport of arginine across the Caco-2 cell monolayer, both sides of the transwells were washed with arginine incubation buffer consisting of: 137 mM NaCl, 10 mM Hepes, 0.3 mM NaH2PO4, 0.3 mM K2HPO4, 5.4 mM KCl, 2.8 mM CaCl2, 1 mM MgSO4, 10 mM glucose, adjusted to pH 7.4. Then, the cell layer was pre-incubated in the incubation buffer at 37° C. for 1 h. The volumes of incubation buffer were 0.2 mL and 0.9 mL in the apical and basolateral chambers, respectively. The cells were replaced with fresh incubation medium in both chambers prior to the transport experiment. The transport experiment was initiated by replacing the incubation solution on the apical side with solution containing 10 mM of L-arginine in which 0.125 μCi/mL of L-[^3H]-arginine was included. At designated time intervals, 10 μL-solution samples were removed from the basolateral side and radioactivity of each sample was counted using a microplate liquid scintillation counter (TopCount, Packard NXT). During the experiment, when a 10 μL-solution sample was removed from the basolateral side every time, 10 μL buffer was supplemented to keep the volume constant. The uptake of [^3H]-mannitol was used to correct for nonspecific transport of molecules across the monolayer membrane. Results were expressed as the nanomoles of arginine transport across the Caco-2 cell monolayers with respect to time in minutes (nmol/min).

[2] = system: Caco-2 cell monolayer; assay: Tryptophan absorption assay (transport across Caco-2 monolayer); assay type: cell-based, human
Method: as §1
The experimental procedures similar to those in Example 2 were used for measuring the uptake of tryptophan molecules across the Caco-2 membrane, except using a tryptophan incubation buffer consisting of 137 mM choline chloride, 10 mM Hepes, 0.6 mM KH2PO4, 5.4 mM KCl, 2.8 mM CaCl2, 1 mM MgSO4, and 10 mM glucose, and having its pH adjusted to 7.4. Results were expressed as the nanomoles of tryptophan transport across the Caco-2 cell monolayers with respect to time in minutes (nmol/min).

With CC(C)=CCC[C@](C)(O[C@@H]1O[C@H](CO)[C@@H](O)[C@H](O)[C@H]1O)[C@H]1CC[C@]2(C)[C@@H]1[C@H](O)C[C@@H]1[C@@]3(C)CC[C@H](O)C(C)(C)[C@@H]3[C@@H](O[C@@H]3O[C@H](CO)[C@@H](O)[C@H](O)[C@H]3O)C[C@]12C [Rg1, ginsenoside Rg1] the “Percentage (arginine transport, control = 100)” value ([1]; compound 0.01 μM) was 126.89%, the “Transport rate (arginine)” value ([1]; compound 0.01 μM) was 13.5583 ± 1.1940 nmol/min and the “Percentage (arginine transport, control = 100)” value ([1]; compound 0.1 μM) was 210.91%. The “Transport rate (arginine)” value ([1]; compound 0.1 μM) was 22.5370 ± 0.8912 nmol/min, the “Percentage (arginine transport, control = 100)” value ([1]; compound 1 μM) was 171.51% and the “Transport rate (arginine)” value ([1]; compound 1 μM) was 18.3265 ± 0.8965 nmol/min. The “* (arrow: regulatory effect on tryptophan transport)” value ([2]; compound 0.001 μM) was “↑”, the “Percentage (tryptophan transport, control = 100)” value ([2]; compound 0.001 μM) was 130.17% and the “Transport rate (tryptophan)” value ([2]; compound 0.001 μM) was 16.180 ± 2.8700 nmol/min. The “tryptophan transport rate (in words)” value ([2]; compound 0.001 μM to 0.1 μM) was “increased”, the “* (arrow: regulatory effect on tryptophan transport)” value ([2]; compound 0.01 μM) was “↑” and the “Percentage (tryptophan transport, control = 100)” value ([2]; compound 0.01 μM) was 133.47%. The “Transport rate (tryptophan)” value ([2]; compound 0.01 μM) was 16.590 ± 1.4190 nmol/min, the “* (arrow: regulatory effect on tryptophan transport)” value ([2]; compound 0.1 μM) was “↑” and the “Percentage (tryptophan transport, control = 100)” value ([2]; compound 0.1 μM) was 142.48%. For the same compound, the “Transport rate (tryptophan)” value ([2]; compound 0.1 μM) was 17.710 ± 0.5948 nmol/min.
